Measurements reported in patent US7754480B2, “Method of isolating stem cells” (Duke University, priority 1998, dated 2010).

Columns and labels:
[1] = test system: ALDH in L1210/cpa cells; assay: BAAA staining of cyclophosphamide-resistant ALDH+ L1210/cpa cells, flow cytometry; type: cell-based, murine
Description: (§1) FIGS. 1A-1D. BAAA staining identifies cells with high levels of ALDH activity. L1210/cpa is a derivative of the L1210 leukemic cell line that overexpresses ALDH. (FIGS. 1A and 1B represent L1210 cells, plus DEAB and minus DEAB, respectively; FIGS. 1C and 1D represent L1210/cpa cells, plus and minus DEAB, respectively).
(§2) K562, L1210 and L1210/cpa cells (ATCC) were maintained in suspension in RPMI 1640 media supplemented with 10% Fetal Calf Serum (FCS) and 5×10^−5 M β-mercaptoethanol.
(§3) To assay whether BAAA would permit the specific selection of ALDH^+ cells, studies initially determined an optimal response dose for the BAAA reagent in a murine cell line previously selected for cylophoshamide-resistance, L1210/cpa, that is known to be ALDH^+ (FIG. 1). The parental cell line, L1210 (FIGS. 1A and 1B) is cylophosphamide-sensitive and ALDH^−. […] In these studies, the BAAA could be used at a final concentration as low as 5 μM. This molar concentration is 10-fold lower than that used with the dansylated reagent.

[2] = Solubility and membrane permeability of the aldehyde reagent (BAAA); type: physicochemical
Description: Due to the inherent instability of aldehydes in aqueous solution, the reagent is prepared and stored as an acetal. […] Intracellular fluorescence can be used to select cells.

[3] = test system: L1210 cells; assay: BAAA staining of parental ALDH- L1210 cells, flow cytometry; type: cell-based, murine; conditions: cyclophosphamide-sensitive parental L1210
Description: as §1, §2, §3

[4] = test system: human ALDH1 in K562 cells; assay: BAAA staining of K562 cells expressing ALDH1; type: cell-based
Description: as §2
Multiple different ALDH isoenzymes exist and these may display different abilities to convert BAAA. […] Therefore, a human cell line known to express ALDH1, K562, was assayed with this novel reagent.

[5] = test system: ALDH in UCB cells; assay: BAAA staining of mononuclear umbilical cord blood (UCB) cells, flow cytometry; type: cell-based, human
Description: Human umbilical cord blood (UCB), intended for disposal, was collected into sterile bottles containing anticoagulant citrate buffer. The UCB used in these studies were processed within 24 hours of being harvested. White cells were enriched through a preliminary red cell agglutination where the UCB was diluted 1:2 with Dulbecco's phosphate buffered saline (PBS) at room temperature. These cells were then brought to a final concentration of 1% Hespan (DuPont Pharma, Wilmington, Del.) and were left to stand undisturbed for 1 hour. Non-agglutinated white blood cells were harvested and residual red cells were hemolysed at 37° C. in 0.17 M NH4Cl containing 10 mM Tris-HCl, pH 7.2 and […] EDTA. The recovered cells were washed in IMDM containing 2% FCS and mononuclear cells are then purified using Ficoll-Hypaque (1.077 g/ml). When held overnight, the cells were kept on ice in a 4° C. refrigerated room in IMDM with 20% FCS.
Mononuclear UCB cells were resuspended at 10^6 cells/ml in IMDM containing 2% FCS and were labeled with 1 μM BAAA for 30 min. When used, verapamil was included at […]. After staining, the cells were washed with ice cold staining media and maintained on ice until their analysis and sorting. The cells were then resuspended in staining media with […] 7-aminoactinomycin D (7AAD) (Molecular Probes; Eugene, OR). For antibody staining to permit multiparameter analyses, the cells were resuspended in staining media (100 μl) and antibodies were added directly to the cell suspensions. The cells were incubated on ice for 20 min. and then washed again in ice cold staining media. The cells were then analyzed or sorted on a FAC Star Plus cell sorter (BDIS) equipped with dual Coherent I -90 argon-dye laser. The BAAA was excited at 488 nm and emissions were detected using 515 DF20filter in FL1. Dead and dying cells were excluded on the basis of their high emission in the far red wavelength due to their uptake of 7AAD.
Umbilical Cord Blood (UCB) was chosen for its increasing promise as a source for transplantable hematopoietic stem cells. […]

[6] = test system: MDR efflux pump in UCB cells; assay: Efflux of converted BAAA from UCB cells with or without verapamil; conditions: product of the ALDH conversion of BAAA
Description: When used, verapamil was included at 50 mM. After staining, the cells were washed with ice cold staining media and maintained on ice until their analysis and sorting. The cells were then resuspended in staining media with 10 mg/ml 7-aminoactinomycin D (7AAD) (Molecular Probes; Eugene, OR). For antibody staining to permit multiparameter analyses, the cells were resuspended in staining media (100 μl) and antibodies were added directly to the cell suspensions. The cells were incubated on ice for 20 min. and then washed again in ice cold staining media. The cells were then analyzed or sorted on a FAC Star Plus cell sorter (BDIS) equipped with dual Coherent I -90 argon-dye laser. […] Dead and dying cells were excluded on the basis of their high emission in the far red wavelength due to their uptake of 7AAD.
Since this reagent had never been previously characterized, the susceptibility of converted BAAA to MDR efflux was assayed. Although BODIPY aminoacetaldehyde passes through the cell membrane without active transport, the product of the ALDH conversion (BODIPY aminoacetate) might well be a substrate for the MDR pump.

[7] = Stability of BODIPY aminoacetaldehyde diethyl acetal on storage and in 1 N HCl; type: physicochemical
Description: The aldehyde dehydrogenase substrate is prepared as BODIPY aminoacetaldehyde diethyl acetal and lyophilized in 0.5 micromole aliquots. […] The acetal is then solubilized in DMSO to a final concentration of 5 mM. […] To convert the acetal to an acetaldehyde, aliquots of this solution are brought to a final concentration of 1 N HCl. […] After 2 hours in 1 N HCl, the vast majority of the BODIPY aminoacetaldehyde diethyl acetal has converted to BODIPY aminoacetaldehyde (BAAA), and is then diluted to […] in Dulbecco's phosphate buffered saline (PBS). This stock is added directly to cells prepared in Iscove's Modified Dulbecco's Medium (IMDM) with 2% FCS at concentrations ranging from 1 to 5 μM.)(See also FIG. 6.).

[8] = test system: human hematopoietic cells; assay: Preliminary DAAA staining of human hematopoietic cells, flow cytometry; type: cell-based; conditions: signal intensity too high in flow cytometry
Description: Preliminary studies using DAAA indicate that this reagent is unusable on preparations of human hematopoietic cells because the signal intensity of the reagent is too high to resolve discrete cell populations by flow cytometry. The present invention provides a fluorescent ALDH substrate that is free of the problems associated with DAAA and that can be used in the purification of primitive human hematopoietic cells.

SMILES: Cc1cc(C)n2c1C=C1C=CC(CCC(=O)NCC=O)=[N+]1[B-]2(F)F [BAAA, BODIPY aminoacetaldehyde]
- molar concentration relative to the dansylated reagent (fold lower) ([1]; 5 μM BAAA vs dansylated reagent): 10 fold
- detection of ALDH+ cells ([1]; L1210/cpa): able to detect ALDH^+ cells
- lowest usable final concentration ([1]; continuous cell lines): 5 µM
- solubility in PBS [2]: freely soluble
- fluorescent response to BAAA [3]: essentially no response
- conversion of BAAA / ALDH positivity [4]: positive for ALDH
- molar concentration relative to dansyl aminoacetaldehyde (fold lower) ([5]; 1 μM BAAA vs concentration of DAAA used for murine PHSC): 50 fold
- optimal concentration for resolving ALDH^br subpopulations ([5]; UCB cells 10^6 cells/ml, IMDM 2% FCS): 1 µM

SMILES: CC1=CC(C)=[N+]2C1=Cc1ccc(CCC(=O)NCC(=O)O)n1[B-]2(F)F [BODIPY Aminoacetate, BODIPY aminoacetate]
- substrate status for the MDR efflux pump [6]: Substrate for the MDR Efflux Pump

SMILES: CCOC(CNC(=O)CCC1=[N+]2C(=Cc3c(C)cc(C)n3[B-]2(F)F)C=C1)OCC [BODIPY aminoacetaldehyde diethyl acetal]
- stability of solution in DMSO ([7]; 5 mM in DMSO at 4° C.): up to 1 week
- half life of the acetal ([7]; 1 N HCl, conversion to the acetaldehyde): 15 min
- stability of lyophilized aliquots ([7]; lyophilized 0.5 micromole aliquots stored at -20° C.): stable indefinitely

SMILES: CN(C)c1cccc2c(S(=O)(=O)NCC=O)cccc12 [DAAA, dansyl aminoacetaldyde]
- usability for resolving discrete cell populations [8]: unusable

SMILES: CCN(CC)c1ccc(C=O)cc1 [DEAB, diethylbenzaldehyde, reference compound]
- block of the BAAA fluorescent response ([1]; 10-fold molar excess of DEAB, L1210/cpa): totally blocked
- inhibition of the BAAA response [4]: entirely inhibited
- inhibition of the BAAA response ([5]; excess DEAB, UCB cells): inhibited
